We go through three compounds from US7078389B2, “Chemically modified oligonucleotide for site-directed mutagenesis” (priority 1993, dated 2006).

One data set relates to supF gene. Particulars: free psoralen plus UVA, published data, FIG. 2B/5B; cited from earlier work.
Data set [1] relates to supF gene (250 bp fragment). Put plainly: Triplex binding assay (32P-labelled oligonucleotide, gel electrophoresis). On the set-up: species or system E. coli. To be noted: for Binding of oligonucleotide to supF gene fragment: 32P-labelled oligomer 6×10^−8 M, oligomer:supF about 1:1, 2 hours at 37 degrees; for Competition with 32P-labelled AG10 for binding to supF: unlabelled competitor at 200-fold molar excess. As to the method: The target gene chosen was supF, an E. coli amber suppressor tyrosine tRNA gene, contained within the genome of a lambda phage vector, lambda supF as shown in FIG. 1. A 10 base homopurine oligonucleotide AG10 (5′AGGAAGGGGG 3′) capable of forming a triple strand at positions 167–176 in the supF gene was identified.
The 250 bp supF target was generated from lambda supF using the polymerase chain reaction. Each oligo (200 ng) was labelled with 50 μCi of gamma-^32P-ATP (Amersham, Arlington Heights, Ill.) and separated from unreacted gamma^32P-ATP by passage through a G-25 spin column (Boehringer Mannheim, Indianapolis, Ind.). The concentration of oligomer in the reaction mixture was 6×10^−8 M and the oligomer:supF ratio was approximately 1:1 on a molar basis. When present, competitors were used at 200-fold molar excess.
Following the 2 hour binding step, reaction mixtures were run on a 4% acrylamide gel in 90 mM Tris base, 90 mM boric acid, 20 mM MgCl2 with a 20% acrylamide plug. A 100 bp ladder (BRL, Bethesda, Md.) was end-labelled as described for oligomers and run on gels as a size reference. Following a 4 hour run at constant voltage (150 V), the gel was visualized by autoradiography for 1 hour using Kodak X-AR film. […] To assay for triplex formation, ^32P-labeled oligonucleotides, either AG10 (^5 AGGAAGGGGG^3) (SEQ ID NO:2) or the reverse sequence oligomer (GA10), were incubated with a […] double-stranded fragment containing the entire supF gene. The products of the binding reactions were visualized by polyacrylamide gel electrophoresis and autoradiography.
When no supF target DNA was present, there was no band observed at this position. […] In lanes 5–8, no binding of the ^32P-labelled GA10 to supF was detected: GA10 alone without supF; GA10 plus supF; GA10 plus supF with excess unlabelled GA10; GA10 plus supF with excess AG10.

“Also recorded” adds a separate entry of the source. {Pso} = 4'-hydroxymethyl-4,5',8-trimethylpsoralen through a two-carbon linker arm and a phosphodiester

As to `COc1c2occc2cc2ccc(=O)oc12` [8-methoxypsoralen], the “Occurrence of supF mutations at base pair 167” value in the data set on supF gene is given as “none of them occur at position 167; also recorded: none were found to occur at base pair 167”.

Regarding “5′ GGGGGAAGGA 3′ (DNA, 5' {Pso}, backbone not given here; triplex-forming reverse control oligonucleotide) [GA10]”, in data set [1], the “Binding of oligonucleotide to supF gene fragment” value was “no binding; also recorded: failed to bind to supF; also recorded: did not bind” and the “Competition with 32P-labelled AG10 for binding to supF” value is “did not compete with AG10; also recorded: failed to bind to supF or to compete with AG10 for binding”.

As for “5′AGGAAGGGGG 3′ (DNA, 5' {Pso}, backbone not given here; triplex-forming oligonucleotide) [AG10, 10 base homopurine oligonucleotide capable of forming a triple strand at positions 167–176 in the supF gene]”, in data set [1], the “Binding of oligonucleotide to supF gene fragment” value is reported as “Binding of labelled AG10 to the added supF DNA was demonstrated; also recorded: bound specifically to the supF gene” and the “Competition with 32P-labelled AG10 for binding to supF” value is on record as “competed with the ^32P-labelled AG10”.
